Values joined by “and” are separate entries in the source; they are usually repeats but may differ in a detail not shown here. Equal values may be shown once. Inconclusive results and toxic doses are left out. Cut-off read from the data, not from the text of the source: active = T/C of 150% or more; inactive = T/C below 125%.
Test system: L1210 leukemia ip in BDF1 mice, survival T/C
Assay: NCI In Vivo Anticancer Drug Screen. Data for tumor model L1210 Leukemia (intraperitoneal) in B6D2F1 (BDF1) mice
Details: endpoint: mean survival time, higher = longer survival
Method in brief: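 Tumor was transplanted into mice, which were then dosed with test compound or vehicle alone. Survival was recorded for each group, and the treated figure was expressed relative to the control figure.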

[1] = dose: 100.0 mg/kg/injection, schedule: Q01DX009 (ip), vehicle: saline with Tween-80
[2] = dose: 100.0 mg/kg/injection, schedule: Q04DX003 (ip), vehicle: saline with Tween-80
[3] = dose: 200.0 mg/kg/injection, schedule: Q01DX009 (ip), vehicle: saline with Tween-80
[4] = dose: 200.0 mg/kg/injection, schedule: Q04DX003 (ip), vehicle: saline with Tween-80
[5] = dose: 400.0 mg/kg/injection, schedule: Q01DX009 (ip), vehicle: saline with Tween-80
[6] = dose: 400.0 mg/kg/injection, schedule: Q04DX003 (ip), vehicle: saline with Tween-80
[7] = dose: 5.0 mg/kg/injection, schedule: Q01DX001 (ip), vehicle: saline
[8] = dose: 10.0 mg/kg/injection, schedule: Q01DX001 (ip), vehicle: saline
[9] = dose: 100.0 mg/kg/injection, schedule: Q01DX001 (ip), vehicle: Klucel (hydroxypropylcellulose) (HPC)
[10] = dose: 200.0 mg/kg/injection, schedule: Q01DX001 (ip), vehicle: Klucel (hydroxypropylcellulose) (HPC)
[11] = dose: 400.0 mg/kg/injection, schedule: Q01DX001 (ip), vehicle: Klucel (hydroxypropylcellulose) (HPC)
[12] = dose: 100.0 mg/kg/injection, schedule: Q01DX001 (ip), vehicle: saline
[13] = dose: 200.0 mg/kg/injection, schedule: Q01DX001 (ip), vehicle: saline
[14] = dose: 400.0 mg/kg/injection, schedule: Q01DX001 (ip), vehicle: saline
[15] = dose: 100.0 mg/kg/injection, schedule: Q04DX003 (ip), vehicle: Klucel (hydroxypropylcellulose) (HPC)
[16] = dose: 200.0 mg/kg/injection, schedule: Q04DX003 (ip), vehicle: Klucel (hydroxypropylcellulose) (HPC)
[17] = dose: 50.0 mg/kg/injection, schedule: Q01DX001 (ip), vehicle: Klucel (hydroxypropylcellulose) (HPC)
[18] = dose: 100.0 mg/kg/injection, schedule: Q01DX001 (ip), vehicle: carboxymethylcellulose (CMC)
[19] = dose: 200.0 mg/kg/injection, schedule: Q01DX001 (ip), vehicle: carboxymethylcellulose (CMC)
[20] = dose: 400.0 mg/kg/injection, schedule: Q01DX001 (ip), vehicle: carboxymethylcellulose (CMC)

Measured: T/C

CC(=O)[C@@]1(O)CC[C@H]2[C@@H]3C=C(C)C4=CC(=O)C=C[C@]4(C)[C@@]3(F)[C@@H](O)C[C@@]21C
inactive: dose: 50.0 mg/kg/injection, schedule: Q01DX001 (sc), vehicle: steriod suspending solution 96 % of control | dose: 100.0 mg/kg/injection, schedule: Q01DX001 (sc), vehicle: steriod suspending solution 102 % of control | dose: 200.0 mg/kg/injection, schedule: Q01DX001 (sc), vehicle: steriod suspending solution 105 % of control | dose: 400.0 mg/kg/injection, schedule: Q01DX001 (sc), vehicle: steriod suspending solution 118 % of control

O=C(O)CNC(=O)c1ccc([N+](=O)[O-])cc1
inactive: [1] 92 % of control | [2] 103 % of control | [3] 92 % of control | [4] 98 % of control | [5] 92 % of control | [6] 98 % of control

CCOP(=O)(OCC)Oc1cc(C)c(C#N)c(C)c1
inactive: [7] 108 % of control | [8] 108 % of control | dose: 20.0 mg/kg/injection, schedule: Q01DX001 (ip), vehicle: saline 100 % of control | dose: 40.0 mg/kg/injection, schedule: Q01DX001 (ip), vehicle: saline 103 % of control

O=C(O)c1ccccc1Cc1cccc2c(Cl)cccc12
inactive: [9] 97 % of control | [10] 98 % of control | [11] 101 % of control

CC(=O)c1ccc(OC(=O)C(C)(C)C)cc1
inactive: [12] 97 % of control | [13] 103 % of control | [14] 98 % of control

CCN(CC)C(=S)[S][Sb]([S]C(=S)N(CC)CC)[c]1ccccc1
inactive: dose: 100.0 mg/kg/injection, schedule: Q01DX001 (ip), vehicle: other 112 % of control | dose: 200.0 mg/kg/injection, schedule: Q01DX001 (ip), vehicle: other 89 % of control

CC1CP(=O)(Cc2ccccc2)C(c2ccccc2)=C1O (stereo unspecified)
inactive: [15] 90 % of control | [16] 93 % of control | dose: 400.0 mg/kg/injection, schedule: Q04DX003 (ip), vehicle: Klucel (hydroxypropylcellulose) (HPC) 96 % of control

O=[N+]([O-])c1cnccc1Nc1ccncc1
inactive: [2] 98 % of control | [4] 94 % of control

COC(=O)N1C2C3C(C)=C(C)C2(C)C3(C)S1(=O)=O (stereo unspecified)
inactive: [9] 93 % of control | [15] 101 % of control | [10] 93 % of control | [16] 106 % of control | [11] 97 % of control

CC(=O)Oc1cc(OC(C)=O)c2c(OC(C)=O)c3c(OC(C)=O)cc(C)cc3cc2c1
inactive: [7] 112 % of control | [8] 113 % of control

Cc1cc(C(c2ccccc2)c2ccccc2)cc(C)c1OCc1ccccc1
inactive: [17] 93 % of control | [9] 93 % of control | [10] 90 % of control

O=S1c2ccccc2S(=O)c2ccccc21 (stereo unspecified)
inactive: [2] 96 % of control | [4] 91 % of control | [6] 89 % of control

C[n+]1c2ccccc2c(-c2c3ccccc3[n+](C)c3ccccc23)c2ccccc21
inactive: dose: 12.5 mg/kg/injection, schedule: Q01DX001 (ip), vehicle: Klucel (hydroxypropylcellulose) (HPC) 102 % of control | dose: 25.0 mg/kg/injection, schedule: Q01DX001 (ip), vehicle: Klucel (hydroxypropylcellulose) (HPC) 98 % of control | [17] 98 % of control

CCCCCC/C(=C\c1ccc(O)cc1)C(=O)O
inactive: dose: 50.0 mg/kg/injection, schedule: Q01DX001 (ip), vehicle: carboxymethylcellulose (CMC) 97 % of control | [18] 103 % of control | [19] 105 % of control | [20] 100 % of control

CN(C)c1nc(=[N+](C)C)ss1
inactive: dose: 15.0 mg/kg/injection, schedule: Q01DX015 (ip), vehicle: saline 102 % of control | dose: 30.0 mg/kg/injection, schedule: Q01DX015 (ip), vehicle: saline 94 % of control | dose: 60.0 mg/kg/injection, schedule: Q01DX015 (ip), vehicle: saline 100 % of control | [2] 100 % of control | dose: 120.0 mg/kg/injection, schedule: Q01DX015 (ip), vehicle: saline 105 % of control | [4] 96 % of control

CN(C)CCCN(CCCN(C)C)Cc1ccccc1
inactive: dose: 75.0 mg/kg/injection, schedule: Q01DX001 (ip), vehicle: saline 104 % of control | dose: 150.0 mg/kg/injection, schedule: Q01DX001 (ip), vehicle: saline 97 % of control

O=C(O)C1CC2(CCC1c1ccccc1)SCCS2 (stereo unspecified)
inactive: dose: 50.0 mg/kg/injection, schedule: Q01DX009 (ip), vehicle: Klucel (hydroxypropylcellulose) (HPC) 95 % of control | [9] 97 % of control | dose: 100.0 mg/kg/injection, schedule: Q01DX009 (ip), vehicle: Klucel (hydroxypropylcellulose) (HPC) 93 % of control | [10] 100 % of control | dose: 200.0 mg/kg/injection, schedule: Q01DX009 (ip), vehicle: Klucel (hydroxypropylcellulose) (HPC) 96 % of control | [11] 96 % of control

Cc1cc(C)cc(Cc2ccc3ccccc3c2)c1
inactive: [17] 109 % of control | [9] 98 % of control | [10] 96 % of control | [11] 90 % of control

CCCC(=O)OCC1OC(n2cnc3c(=S)nc(N)[nH]c32)C(OC(=O)CCC)C1OC(=O)CCC (stereo unspecified)
active: dose: 5.0 mg/kg/injection, schedule: Q01DX Z (ip), vehicle: carboxymethylcellulose (CMC) 154 % of control | dose: 17.0 mg/kg/injection, schedule: Q01DX Z (ip), vehicle: carboxymethylcellulose (CMC) 157 % of control and 159 % of control | dose: 25.0 mg/kg/injection, schedule: Q01DX Z (ip), vehicle: carboxymethylcellulose (CMC) 152 % of control
inactive: dose: 1.0 mg/kg/injection, schedule: Q01DX Z (ip), vehicle: carboxymethylcellulose (CMC) 109 % of control | dose: 1.5 mg/kg/injection, schedule: Q01DX Z (ip), vehicle: carboxymethylcellulose (CMC) 117 % of control | dose: 2.0 mg/kg/injection, schedule: Q01DX Z (ip), vehicle: carboxymethylcellulose (CMC) 112 % of control | dose: 2.3 mg/kg/injection, schedule: Q01DX Z (ip), vehicle: carboxymethylcellulose (CMC) 124 % of control | dose: 3.0 mg/kg/injection, schedule: Q01DX Z (ip), vehicle: carboxymethylcellulose (CMC) 117 % of control | dose: 9.7 mg/kg/injection, schedule: Q01DX Z (oral), vehicle: carboxymethylcellulose (CMC) 106 % of control | dose: 27.0 mg/kg/injection, schedule: Q01DX Z (oral), vehicle: carboxymethylcellulose (CMC) 115 % of control | dose: 37.0 mg/kg/injection, schedule: Q01DX Z (ip), vehicle: carboxymethylcellulose (CMC) 112 % of control and 118 % of control | dose: 125.0 mg/kg/injection, schedule: Q01DX Z (oral), vehicle: carboxymethylcellulose (CMC) 119 % of control

CSc1cc2c(cc1NC(C)=O)Cc1ccccc1-2
inactive: [18] 93 % of control | [19] 95 % of control | [20] 95 % of control

CCCOC(=O)Nc1cccc(O)c1
inactive: [1] 92 % of control | [3] 94 % of control | [5] 88 % of control

Cc1cc(NC(C)C)c(C)cc1NC(C)C
inactive: dose: 12.5 mg/kg/injection, schedule: Q04DX002 (ip), vehicle: Klucel (hydroxypropylcellulose) (HPC) 93 % of control | dose: 25.0 mg/kg/injection, schedule: Q04DX002 (ip), vehicle: Klucel (hydroxypropylcellulose) (HPC) 96 % of control

COc1ccc(O)c(CCCO)c1
inactive: dose: 50.0 mg/kg/injection, schedule: Q01DX001 (ip), vehicle: saline 104 % of control | [12] 95 % of control | [13] 112 % of control | [14] 95 % of control

Cc1ccc(NC(=O)c2cccc(C(=O)Nc3ccc(C)cc3C)c2)c(C)c1
inactive: dose: 12.5 mg/kg/injection, schedule: Q04DX003 (ip), vehicle: saline with Tween-80 98 % of control | dose: 25.0 mg/kg/injection, schedule: Q04DX003 (ip), vehicle: saline with Tween-80 98 % of control | dose: 50.0 mg/kg/injection, schedule: Q04DX003 (ip), vehicle: saline with Tween-80 93 % of control | [4] 87 % of control

CCC(O)(/C(=N/Nc1ccc([N+](=O)[O-])cc1[N+](=O)[O-])c1ccccc1)c1ccccc1 (stereo unspecified)
inactive: dose: 100.0 mg/kg/injection, schedule: Q01DX001 (ip), vehicle: saline with Tween-80 94 % of control | dose: 200.0 mg/kg/injection, schedule: Q01DX001 (ip), vehicle: saline with Tween-80 89 % of control | dose: 400.0 mg/kg/injection, schedule: Q01DX001 (ip), vehicle: saline with Tween-80 89 % of control

Reference: PubChem BioAssay AID248 (DTP/NCI, 2004)
